Patent publication US5505715A, “Iontophoretic transdermal delivery of deoxyspergualin compounds” (priority 1994, dated 1996)
Entries after “also recorded” stand apart in the source; their conditions may differ. Read-outs that look alike come from different tables or passages of the source.

How the values were obtained:
immune activity = conditions: cited from earlier work
[1] = cited from earlier work
[2] = parameters: species or system fuzzy rat; conditions: rat, in vivo
Description: Applicants have further conducted an in vivo study to investigate the rate and extent of absorption of DSG in fuzzy rats following transdermal iontophoretic administration. Using iontophoresis, approximately 4 mg of DSG (i.e., between 15-20 mg/kg) was delivered to fuzzy rats over a three-hour period. This is equivalent to a delivery rate of about 230 μg/cm^2 /hr of DSG. Relatively high serum levels of DSG, about 18 μg/ml, were observed after iontophoretic administration.
An aqueous solution of DSG trihydrochloride (10 mg/ml) was prepared two days prior to the experiment and stored at -5° C. until the start of the experiment. This solution was kept refrigerated during the course of the experiment.
Four male fuzzy rats from Harlan Laboratories (Indianapolis, Ind.) were used in this study after a one week quarantine period. The fuzzy rat is a hypotrichotic genetic mutuant of the normal albino rat. The main difference between adult fuzzy and normal haired rats is the poorly developed hair follicles in the skin of the former. As a result, adult fuzzy rats are almost devoid of hair. The fuzzy rats have an intact immune system. […]
Blood samples were taken from the tail artery during the treatment and at the end of the treatment period. […] Blood samples, used electrodes and skin wipes, and urine were analyzed for DSG by scintillation counting. The urine samples were also analyzed by HPLC.

interleukin-2 production = conditions: cited from earlier work
[3] = system: anti-KLH antibody response (keyhole limpet hemocyanin); experiment: in vivo immunosuppression (anti-KLH antibody response) in fuzzy rats; parameters: species or system fuzzy rat
From the text: The humoral response of animals to the foreign protein keyhole limpet hemocyanin (KLH) is used routinely as a model system to test the efficacy of immunosuppressive drugs. Activity in this model has correlated well with activity for suppressing rejection of an allograft or suppressing the development of autoimmune disease in animals. […] The antibody level in the treated animals on the fourteenth day following the initial treatment was still only 6% of the level of the control animals.
Six fuzzy rats were used in this study. The procedure for this study was based on the model described by Tepper et al., Inhibition of Antibody Production by the Immunosuppressive Agent, 15-Deoxyspergualin, Transplant Proc., 23:328-32 (1991). This model involves immunizing the animals with a potent immunogenic antigen, keyhole limpet hemocyanin (KLH). The serum anti-KLH antibody levels (immune response) in the control and treated animals are then measured over 14 days. An effective immunosuppressive agent should result in a suppression of the immune response in the treated animals.
All six fuzzy rats were immunized with a solution of keyhole limpet hemocyanin (1 mg) by intraperitoneal injection. Two rats were used as controls and were not treated with DSG. The other four rats received DSG by transdermal iontophoresis. The electrodes and power supply used in the study of Example 2 were also used for this study. DSG solution (1.5 ml, 15.34 mg) was added to the donor (active) electrode just prior to the experiment. The electrodes were applied to each of the four participating fuzzy rats (one on either side of the spine). Prior to DSG treatment, the animals were anesthetized with METOFANE (methoxyflurane, Pitman-Moore, Mundelein, Ill.) and the hair on the dorsal side depilated. An anesthetic cocktail consisting of 10 ml of KETASET (ketamine HCL, 100 mg/ml; Aveco Co., Inc., Fort Dodge, Iowa) mixed with 2 ml ROMPUN (xylazine, 20 mg/ml; Mobay Corp., Shawnee, Kans.) was used at 0.1 ml per 100 g in order to maintain the animals under anesthesia during the treatment period. A current density of 0.5 mA/cm^2 /hr (2.9 mA total) was used to deliver the DSG. The four rats received DSG by iontophoresis for 3 hours daily over a period of three days (Days 0, 1 and 2) (Day 0 was the first day of the experiment). During this period food and water were provided ad libitum and these four animals were housed individually in metabolic cages so that urine could be collected for analysis. On Day 3 the animals were weighed and then returned to their regular cages for the remaining duration of the study. […]
The blood samples were stored on ice for 1 hour to coagulate and then centrifuged. The serum was separated and analyzed using an ELISA method described below. […] Aliquots were analyzed by HPLC. […]

tumors = conditions: cited from earlier work
[4] = Description: Applicants have evaluated the in vitro delivery of DSG through human cadaver skin using iontophoresis.
An in vitro skin permeation study was conducted to evaluate the iontophoretic transdermal delivery of deoxyspergualin trihydrochloride (DSG) (MW=496) through human cadaver skin mounted in side-by-side glass diffusion cells. A 1.09% w/v solution of DSG was used as the donor solution. The receptor solution was 0.5M NaH2 PO4 aqueous solution. A commercially available power supply (Scepter, Keltronics Corp., Oklahoma City, Okla.) was used. Platinum electrodes were used for this study. The anode was connected to the electrode in the donor side while the cathode was connected to the electrode in the receptor (counterion) fluid. A constant DC current (0.5 mA, 0.78 mA/cm^2) was applied for a period of 48 hours. The receptor solution was sampled at appropriate time intervals. The samples were analyzed for DSG by reverse-phase HPLC using post-column derivatization and fluorescence detection.

[5] = cited from earlier work; remark: listed apart in the source
allograft survival = conditions: used prophylactically; cited from earlier work
[6] = system: human anti-mouse antibody (HAMA) response; conditions: patients treated with monoclonal antibody therapy, cited from earlier work
[7] = system: organ transplant rejection; conditions: humans; cited from earlier work
[8] = system: rheumatoid arthritis, diabetes, lupus and multiple sclerosis models; conditions: in vivo; cited from earlier work

N=C(N)NCCCCCCC(=O)NC(O)C(=O)NCCCCNCCCN (stereo not drawn) [DSG]
immunosuppressive activity (in words) (immune activity): excellent immunosuppressive activity | immunosuppressive potency relative to marketed immunosuppressants (immune activity; versus cyclosporin A, azathioprine and prednisone): at least as potent as other, currently marketed immunosuppressants | side effect profile ([1]; compared to cyclosporin A, azathioprine and prednisone (b7 also OKT3)): superior side effect profile | dose limiting toxicity ([1]; in vivo): myelosuppression | nephrotoxicity ([1]; unlike cyclosporin A): not nephrotoxic | dose delivered by iontophoresis per body weight [2]: 15 to 20 mg/kg | serum level of DSG ([2]; topical or ocular, 3 h): about 18 μg/ml | inhibition of interleukin-2 production (interleukin-2 production): does not inhibit interleukin-2production | antibody level in treated animals as % of control ([3]; Day 14, iontophoresis 3 hours daily for three days): 6% | suppression of immune response ([3]; iontophoresis 3 hours daily for three days, versus untreated control): substantially suppressed the immune response; also recorded: effectively suppressed the immune response | deaths before Day 7 ([3]; of four rats treated by iontophoresis): Two | dose delivered relative to maximum tolerated dose (MTD) ([3]; rat, in vivo): proximate to the maximum tolerated dose (MTD) | antitumor efficacy (tumors): appears to have antitumor efficacy | change of permeation rate in later time period [4]: permeation rate decreased during the later time period | equivalent delivery for a 10 cm^2 delivery system [4]: 135 mg/day | equivalent dose for a 70 kg average body weight person [4]: 2 mg/kg/day | expected delivery for a 20 cm^2 donor electrode [4]: 270 mg/day | passive permeation across human cadaver skin [4]: very little passive permeation | permeation rate across human cadaver skin [4]: 564 μg/cm^2 /hr | Cmax ([5]; 4 mg/kg by 3 hour i.v. infusion): about 10 μg/ml | clearance from plasma (in words) ([5]; human, in vivo): relatively rapid clearance | plasma clearance ([5]; human, in vivo): about 48,000 ml/hr | activity in extending allograft survival (allograft survival): significant activity in extending allograft survival | activity against HAMA response [6]: immunosuppressive activity against the human anti-mouse antibody (HAMA) response | activity against HAMA response ([6]; listed as Deoxyspergualin): useful to suppress human anti-mouse antibody (HAMA) response | clinical activity as an immunosuppressant [7]: clinical activity as an immunosuppressant | activity in animal models of autoimmune disease [8]: effective in animal models in the treatment of autoimmune diseases like rheumatoid arthritis, diabetes and multiple sclerosis
